A solubility (mole fraction) (in acetone, 283.15 K) of 0.000192, a solubility (mole fraction) (in acetone, 288.15 K) of 0.000226 and a solubility (mole fraction) (in acetone, 293.15 K) of 0.000267 were found for `CN1c2ccccc2C(=O)N2CCc3c([nH]c4ccccc34)[C@H]21` in this work. The solubility (mole fraction) (in acetone, 298.15 K) was 0.000315, the solubility (mole fraction) (in acetone, 303.15 K) was 0.000364 and the solubility (mole fraction) (in acetone, 308.15 K) was 0.000426. It also gave a solubility (mole fraction) (in acetone, 313.15 K) of 0.000491, a solubility (mole fraction) (in acetone, 318.15 K) of 0.000571 and a solubility (mole fraction) (in acetone, 323.15 K) of 0.000651. The solubility (mole fraction) (in ethanol, 283.15 K) was 5.94e-05, the solubility (mole fraction) (in ethanol, 288.15 K) was 7.31e-05 and the solubility (mole fraction) (in ethanol, 293.15 K) was 8.95e-05. The solubility (mole fraction) (in ethanol, 298.15 K) was 0.00011, the solubility (mole fraction) (in ethanol, 303.15 K) was 0.000132 and the solubility (mole fraction) (in ethanol, 308.15 K) was 0.000157. For the same compound, the solubility (mole fraction) (in ethanol, 313.15 K) was 0.000186, the solubility (mole fraction) (in ethanol, 318.15 K) was 0.000222 and the solubility (mole fraction) (in ethanol, 323.15 K) was 0.000263. For the same compound, the solubility (mole fraction) (in isopropanol, 283.15 K) was 6.79e-05, the solubility (mole fraction) (in isopropanol, 288.15 K) was 8.16e-05 and the solubility (mole fraction) (in isopropanol, 293.15 K) was 9.91e-05. It also gave a solubility (mole fraction) (in isopropanol, 298.15 K) of 0.000121, a solubility (mole fraction) (in isopropanol, 303.15 K) of 0.000142 and a solubility (mole fraction) (in isopropanol, 308.15 K) of 0.00017. The solubility (mole fraction) (in isopropanol, 313.15 K) was 0.0002, the solubility (mole fraction) (in isopropanol, 318.15 K) was 0.000237 and the solubility (mole fraction) (in isopropanol, 323.15 K) was 0.000276. The solubility (mole fraction) (in methanol, 283.15 K) was 3.43e-05, the solubility (mole fraction) (in methanol, 288.15 K) was 4.34e-05 and the solubility (mole fraction) (in methanol, 293.15 K) was 5.4e-05. For the same compound, the solubility (mole fraction) (in methanol, 298.15 K) was 6.72e-05, the solubility (mole fraction) (in methanol, 303.15 K) was 8.31e-05 and the solubility (mole fraction) (in methanol, 308.15 K) was 0.000102. It also gave a solubility (mole fraction) (in methanol, 313.15 K) of 0.000124, a solubility (mole fraction) (in methanol, 318.15 K) of 0.000149 and a solubility (mole fraction) (in methanol, 323.15 K) of 0.000182.

Source: BigSolDB 2.1
